{"source": "PubChem BioAssay AID2060487", "about": "(Molecular Pharmacology Branch, DTP, NCI, 2025)", "test_system": "997537-175-T-J1-PDC complex spheroid viability", "assay": "Anticancer human tumor 997537-175-T-J1-PDC patient-derived colon adenocarcinoma cell line growth inhibition [GQUAD]", "details": "for viability, T/C: stronger effect = lower value", "description": "DNA G-quadruplex Stabilizer Agents in Combinations in Complex Spheroids\nA high-throughput screen of multi-cell type tumor spheroids was designed to identify active combinations of DNA G-quadruplex stabilizer agents and targeted small molecules. Complex spheroids include a stromal component modeled by human endothelial cells (HUVEC) and fibroblasts modeled by human mesenchymal stem cells (MSCs). The concentration ranges selected for each drug and investigational agent were based upon clinically achievable concentrations if the clinical Cmax of the agent was known.\nCompounds. The drugs and investigational agents: pidnarulex (CX-5461; NSC782164), APTO-253 (NSC789042), BRACO-19 (NSC847499), peposertib (NSC802822), ceralasertib (NSC780249), elimusertib (NSC800525), camonsertib (NSC841442), AZD-1390 (NSC803789), olaparib (NSC753686), talazoparib (NSC767125), ART-558 (NSC835418), sotorasib (NSC818433), MRTX-1133 (NSC836407), SN-38 (NSC673596), topotecan (NSC609699), etoposide (NSC141540), doxorubicin (NSC123127), gemcitabine (NSC613327), 5-fluorouracil (NSC19893), paclitaxel (NSC125973), vemurafenib (NSC761431), panobinostat (NSC761190), R-306465 (JNJ-16241199; NSC773264), adavosertib (NSC754352), TP-3654 (NSC805149), carboplatin (NSC241240), KSQ-4279 (NSC840948), and staurosporine (NSC755774) were obtained from the National Cancer Institute (NCI) Developmental Therapeutics Program Chemical Repository (34). The FDA-approved anticancer drug set is available from the NCI Developmental Therapeutics Program. […] The stock solutions were prepared in dimethyl sulfoxide (DMSO, Sigma-Aldrich, St. Louis, MO, cat. D2650) at 800-fold the tested concentration and stored at -70 degrees C prior to their use. All drugs and investigational agents were tested over a range starting from a high concentration at or near the clinical Cmax and decreasing in half-log increments. If the clinical Cmax for an agent had not been determined, the highest concentration tested was 10 microM.\n2.3 Cell Culture. All cells were maintained in an incubator at 37 degrees C and 5% CO2 with 95% humidity. The PDC lines were cultured according to standard operating procedures established by the NCI PDMR. All PDCs were thawed and cultured in Matrigel-coated flasks prepared with a working solution of 1X Ham's F-12 nutrient mix, without supplementation (Invitrogen, cat. 11765054), 100 U/mL penicillin-streptomycin (Invitrogen, cat. 15140122), and 2.5% Matrigel (Corning Inc., cat. 354248) for the first three passages. The 857933-349-R-J2-PDC line was cultured in 6C/Colon 1B media, which includes advanced DMEM/F-12 (Thermo Fisher Scientific, cat. 12634028), 10 mM HEPES (Thermo Fisher Scientific, cat. 15630080), 1X GlutaMAX supplement (Thermo Fisher Scientific, cat. 35050061), 0.1 mg/mL primocin (InvivoGen, cat. ant-pm-2), 10% defined fetal bovine serum, heat inactivated (HyClone Laboratories Inc., cat. SH30070.03HI), 50% L-WRN conditioned media (ATCC, cat. CRL-3276), 1.25 mM N-Acetyl-L-cysteine (Sigma-Aldrich, cat. A9165), 10 mM nicotinamide (Sigma-Aldrich, cat. N0636), 1X B-27 supplement (Thermo Fisher Scientific, cat. 17504044), 1X N-2 supplement (Thermo Fisher Scientific, cat. 17502048), 10 microM Y-27632 dihydrochloride (Tocris Bioscience, cat. 1254), and 50 ng/mL human EGF recombinant protein (Thermo Fisher Scientific, cat. PHG0311). The 485176-168-R4-J1-PDC line was cultured in Panc media, which includes all 6C/Colon 1B media components plus 100 ng/mL human FGF-10 (Thermo Fisher Scientific, cat. 100-26), 500 nM SB-431542 (Selleckchem, cat. S1067), and gastrin (Tocris, cat. 3006).\n[…]", "note": "Where “and” joins values, the source holds several entries; their conditions need not be identical. Equal entries are not always repeated.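 Also: spheroids exposed to the agents for 7 days.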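 For viability, T/C in this document: 100% = DMSO vehicle control viability.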"}
{"smiles": "CCc1c2c(nc3ccc(O)cc13)-c1cc3c(c(=O)n1C2)COC(=O)[C@]3(O)CC", "values": [{"measurement": "viability, T/C", "setting": "compound 0.000999 µM", "value": "83.3% and 102% and 95.3%"}, {"measurement": "viability, T/C", "setting": "compound 0.00316 µM", "value": "63.9% and 92% and 82.8%"}, {"measurement": "viability, T/C", "setting": "compound 0.00999 µM", "value": "52.7% and 68.5% and 49%"}, {"measurement": "viability, T/C", "setting": "compound 0.0316 µM", "value": "34.5% and 31.5% and 19.4%"}, {"measurement": "viability, T/C", "setting": "compound 0.0999 µM", "value": "6.34% and 5.01% and 4.92%"}, {"measurement": "viability, T/C", "setting": "compound 0.316 µM", "value": "2.98% and 3.42% and 6.93%"}, {"measurement": "IC50", "setting": "curve of compound", "value": "10.5 nM and 17.4 nM and 9.78 nM"}]}
{"smiles": "CC(C)(O)C1CCC(Nc2ccc3ncc(-c4cccc(C(F)(F)F)c4)n3n2)CC1", "note": "(stereo not drawn) + Cc1cnc(CNC(=O)c2c(=O)c3ccc(N4CCCN(C)CC4)nc3n3c2sc2ccccc23)cn1", "values": [{"measurement": "IC50", "setting": "curve of first compound, second compound 0.0316 µM", "value": 1130, "unit": "nM"}, {"measurement": "IC50", "setting": "curve of first compound, second compound 0.1 µM", "value": 896, "unit": "nM"}, {"measurement": "IC50", "setting": "curve of first compound, second compound 0.316 µM", "value": 1380, "unit": "nM"}, {"measurement": "IC50", "setting": "curve of first compound, second compound 1 µM", "value": 1730, "unit": "nM"}, {"measurement": "IC50", "setting": "curve of first compound, second compound 3.16 µM", "value": 1500, "unit": "nM"}, {"measurement": "IC50", "setting": "curve of first compound, second compound 10 µM", "value": 1570, "unit": "nM"}, {"measurement": "viability, T/C", "setting": "second compound 0.0316 µM, first compound 0.0316 µM", "value": 90.1, "unit": "%"}, {"measurement": "viability, T/C", "setting": "second compound 0.0316 µM, first compound 0.1 µM", "value": 66.9, "unit": "%"}, {"measurement": "viability, T/C", "setting": "second compound 0.0316 µM, first compound 0.316 µM", "value": 88.4, "unit": "%"}, {"measurement": "viability, T/C", "setting": "second compound 0.0316 µM, first compound 1 µM", "value": 52.1, "unit": "%"}, {"measurement": "viability, T/C", "setting": "second compound 0.0316 µM, first compound 3.16 µM", "value": 32.2, "unit": "%"}, {"measurement": "viability, T/C", "setting": "second compound 0.0316 µM, first compound 10 µM", "value": 30.2, "unit": "%"}, {"measurement": "viability, T/C", "setting": "second compound 0.1 µM, first compound 0.0316 µM", "value": 87.6, "unit": "%"}, {"measurement": "viability, T/C", "setting": "second compound 0.1 µM, first compound 0.1 µM", "value": 80.2, "unit": "%"}, {"measurement": "viability, T/C", "setting": "second compound 0.1 µM, first compound 0.316 µM", "value": 73.4, "unit": "%"}, {"measurement": "viability, T/C", "setting": "second compound 0.1 µM, first compound 1 µM", "value": 46.9, "unit": "%"}, {"measurement": "viability, T/C", "setting": "second compound 0.1 µM, first compound 3.16 µM", "value": 36.7, "unit": "%"}, {"measurement": "viability, T/C", "setting": "second compound 0.1 µM, first compound 10 µM", "value": 33.7, "unit": "%"}, {"measurement": "viability, T/C", "setting": "second compound 0.316 µM, first compound 0.0316 µM", "value": 98.1, "unit": "%"}, {"measurement": "viability, T/C", "setting": "second compound 0.316 µM, first compound 0.1 µM", "value": 81.1, "unit": "%"}, {"measurement": "viability, T/C", "setting": "second compound 0.316 µM, first compound 0.316 µM", "value": 80.5, "unit": "%"}, {"measurement": "viability, T/C", "setting": "second compound 0.316 µM, first compound 1 µM", "value": 57.2, "unit": "%"}, {"measurement": "viability, T/C", "setting": "second compound 0.316 µM, first compound 3.16 µM", "value": 31.7, "unit": "%"}, {"measurement": "viability, T/C", "setting": "second compound 0.316 µM, first compound 10 µM", "value": 36.5, "unit": "%"}, {"measurement": "viability, T/C", "setting": "second compound 1 µM, first compound 0.0316 µM", "value": 69.9, "unit": "%"}, {"measurement": "viability, T/C", "setting": "second compound 1 µM, first compound 0.1 µM", "value": 101, "unit": "%"}, {"measurement": "viability, T/C", "setting": "second compound 1 µM, first compound 0.316 µM", "value": 91.4, "unit": "%"}, {"measurement": "viability, T/C", "setting": "second compound 1 µM, first compound 1 µM", "value": 64.5, "unit": "%"}, {"measurement": "viability, T/C", "setting": "second compound 1 µM, first compound 3.16 µM", "value": 35.4, "unit": "%"}, {"measurement": "viability, T/C", "setting": "second compound 1 µM, first compound 10 µM", "value": 27, "unit": "%"}, {"measurement": "viability, T/C", "setting": "second compound 3.16 µM, first compound 0.0316 µM", "value": 92.5, "unit": "%"}, {"measurement": "viability, T/C", "setting": "second compound 3.16 µM, first compound 0.1 µM", "value": 84.4, "unit": "%"}, {"measurement": "viability, T/C", "setting": "second compound 3.16 µM, first compound 0.316 µM", "value": 96.3, "unit": "%"}, {"measurement": "viability, T/C", "setting": "second compound 3.16 µM, first compound 1 µM", "value": 65.4, "unit": "%"}, {"measurement": "viability, T/C", "setting": "second compound 3.16 µM, first compound 3.16 µM", "value": 20.1, "unit": "%"}, {"measurement": "viability, T/C", "setting": "second compound 3.16 µM, first compound 10 µM", "value": 23.2, "unit": "%"}, {"measurement": "viability, T/C", "setting": "second compound 10 µM, first compound 0.0316 µM", "value": 76.2, "unit": "%"}, {"measurement": "viability, T/C", "setting": "second compound 10 µM, first compound 0.1 µM", "value": 108, "unit": "%"}, {"measurement": "viability, T/C", "setting": "second compound 10 µM, first compound 0.316 µM", "value": 91.5, "unit": "%"}, {"measurement": "viability, T/C", "setting": "second compound 10 µM, first compound 1 µM", "value": 69.4, "unit": "%"}, {"measurement": "viability, T/C", "setting": "second compound 10 µM, first compound 3.16 µM", "value": 19.1, "unit": "%"}, {"measurement": "viability, T/C", "setting": "second compound 10 µM, first compound 10 µM", "value": 21.2, "unit": "%"}]}
{"smiles": "CC(C)n1c(=O)n(C)c2cnc3cc(F)c(-c4ccc(OCCCN5CCCCC5)nc4)cc3c21", "values": [{"measurement": "viability, T/C", "setting": "compound 0.0316 µM", "value": "97.6% and 103% and 97%"}, {"measurement": "viability, T/C", "setting": "compound 0.1 µM", "value": "90.3% and 99.9% and 82.4%"}, {"measurement": "viability, T/C", "setting": "compound 0.316 µM", "value": "110% and 106% and 99.8%"}, {"measurement": "viability, T/C", "setting": "compound 1 µM", "value": "107% and 99.2% and 103%"}, {"measurement": "viability, T/C", "setting": "compound 3.16 µM", "value": "83.5% and 78.7% and 101%"}, {"measurement": "viability, T/C", "setting": "compound 10 µM", "value": "83.4% and 93.4% and 92%"}, {"measurement": "IC50", "setting": "curve of compound", "value": "> 10000", "unit": "nM"}]}
{"smiles": "Cc1[nH]c2ccccc2c1CCNCc1ccc(/C=C/C(=O)NO)cc1", "values": [{"measurement": "viability, T/C", "setting": "compound 0.000999 µM", "value": "93.4% and 96.3% and 94.4%"}, {"measurement": "viability, T/C", "setting": "compound 0.00316 µM", "value": "101% and 94.2% and 106%"}, {"measurement": "viability, T/C", "setting": "compound 0.00999 µM", "value": "110% and 59.3% and 109%"}, {"measurement": "viability, T/C", "setting": "compound 0.0316 µM", "value": "105% and 87.4% and 93.1%"}, {"measurement": "viability, T/C", "setting": "compound 0.0999 µM", "value": "100% and 86.6% and 92.4%"}, {"measurement": "viability, T/C", "setting": "compound 0.316 µM", "value": "87.6% and 50% and 52%"}, {"measurement": "IC50", "setting": "curve of compound", "value": "> 316 nM and 316 nM"}]}
